Results published in patent US11739089B2, “Acetamido-phenyltetrazole derivatives and methods of using the same” (Athenex, Inc., priority 2020, dated 2023).
pEC50, pIC50: −log10 of the molar value. Like-named read-outs stand apart in the source and are kept apart here.

What was measured:
P-glycoprotein = P-glycoprotein (Homo sapiens (Human), UniProt P08183); experiment: P-glycoprotein inhibitory activity: MTT cell growth assay in P-gp overexpressing MES-SA/DX5 cells with docetaxel or paclitaxel; type: cell-based; conditions: 3 days, with 100 nM docetaxel or 200 nM paclitaxel, MTT readout
Experimental: P-glycoprotein inhibitory activity may be determined by an assay wherein P-glycoprotein overexpressed cell lines are treated with increasing concentrations of a compound of the present disclosure and therapeutic agent for three days, followed by an MTT assay.
Cell growth percentage may be calculated with the following equation: Cell growth percentage=(T−T0)/(C−T0)×100%, wherein T is OD of the test well exposure to Compound; C is OD of the control well without Compound treatment; and T0 is OD at time zero.
A P-glycoprotein overexpressing cell line derived from the human uterine sarcoma cell line MES-SA (i.e., MES-SA/DX5 cells (ATCC)) was seeded by stepwise exposures to increasing concentrations of doxorubicin, in a 96-well plate at 6,500 cells/100 μL media (McCoy's 5A+10% FBS) in each well. The cells were incubated overnight at 37° C. 5% CO2. Compounds were diluted in a separate 96-well plate to yield 11× of final concentration (final Compound concentrations were 0, 5, 20, 80, 320, and 1280 nM and the final docetaxel concentration was 100 nM or the final paclitaxel concentration was 200 nM). DMSO was used as a negative control and known P-glycoprotein inhibitor, encequidar methane sulfonic acid monohydrate (HM30181A), was used as a positive control. 10 μL of the 11× dilutions was added to the appropriate well, P-glycoprotein inhibition wells comprised Compound+docetaxel (or Compound+paclitaxel). The compound toxicity wells comprised 1280 nM Compound+10 μL of culture media. Treated the cells were incubated for 3 days at 37° C. 5% CO2.
To value (reflecting the starting number of cells upon Compound treatment) of 3 wells of cells was determined by performing the following steps 1-4 as described below.
1. 10 μL MTT (5 mg/mL in PBS) was added to each well and incubated for 1.5 hours at 37° C. 5% CO2.
2. Culture media was removed and 100 μL of DMSO was added to each well.
3. The plate was gently shook until all purple MTT formazan crystals were dissolved. OD540 was then measured using microplate reader.
4. Cell growth percentage was calculated with the following equation: Cell growth percentage=(T−T0)/(C−T0)×100%, wherein T is OD of the test well exposure to Compound; C is OD of the control well without Compound treatment; and T0 is OD at time zero.

CYP3A4 = CYP3A4 (Homo sapiens (Human), UniProt P08684); experiment: CYP3A4 inhibitory activity: Luciferin-IPA (P450-Glo) assay with human liver microsome
Experimental: Cytochrome P450 activity may be determined by a P450-Glo™ assay (Promega) with human liver microsomes wherein the compounds of the present disclosure are dosed at different concentrations in buffer and incubated. Dose-response curve and IC50 data may be obtained and fit to a nonlinear regression model using GraphPad Prism software (v6.0).
The standard final Compound concentrations were 37, 111, 333, 1000, and 3000 nM. 12.5 μL of the Compound dilutions were transferred to a white 96-well plate. 1450 μL (enough for a whole plate) of 4× assay buffer (400 mM potassium phosphate buffer (10 mL 1M potassium phosphate buffer: 8.02 mL 1M K2HPO4+1.98 mL 1M KH2PO4 (1.4 g K2HPO4+0.27 g KH2PO4 in 10 mL H2O), 32 μM Luciferin-IPA (Promega V9002)) 580 μl of 1 M K3PO4 buffer, 870 μL H2O, 14 μL of 3 mM Luciferin-IPA, and 18 μL of human liver microsome (Sigma M0317-1VL) was made. 12.5 μL of 4× assay buffer was added to each well. For the well of blank control, 12.5 μL of 4× assay buffer without liver microsome was added. The plate was incubated at room temperature for 15 minutes. 2.75 mL NADPH buffer was made as follows: 2.42 mL H2O, 275 μL solution A and 55 μL solution B (NADPH regeneration system, Promega V9510). 25 μL of the buffer was added to each well. The plates were incubated at 37° C. for 11 minutes. 50 μL of luciferin detection reagent (Promega V9002) was added and the plates were incubated at room temperature for 5 minutes. The plate was read with a luminometer.
The dose-response curve and IC50 were obtained by fitting data to nonlinear regression model using GraphPad Prism software (v6.0).

Chain of CYP3A4 (P08684 whole entry): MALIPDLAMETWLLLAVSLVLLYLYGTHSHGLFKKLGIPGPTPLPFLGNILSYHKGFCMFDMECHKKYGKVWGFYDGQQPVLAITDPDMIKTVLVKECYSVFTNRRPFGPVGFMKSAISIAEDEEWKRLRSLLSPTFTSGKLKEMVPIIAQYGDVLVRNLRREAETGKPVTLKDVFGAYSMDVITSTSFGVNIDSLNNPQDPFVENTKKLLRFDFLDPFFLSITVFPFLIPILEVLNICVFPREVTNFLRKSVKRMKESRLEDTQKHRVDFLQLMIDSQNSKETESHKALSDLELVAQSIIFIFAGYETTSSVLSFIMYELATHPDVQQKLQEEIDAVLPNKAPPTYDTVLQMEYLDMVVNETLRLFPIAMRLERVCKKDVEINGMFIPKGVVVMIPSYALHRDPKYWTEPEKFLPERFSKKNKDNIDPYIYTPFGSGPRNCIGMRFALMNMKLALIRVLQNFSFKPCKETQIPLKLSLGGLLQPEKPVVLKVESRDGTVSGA
Chain of P-glycoprotein (P08183 whole entry): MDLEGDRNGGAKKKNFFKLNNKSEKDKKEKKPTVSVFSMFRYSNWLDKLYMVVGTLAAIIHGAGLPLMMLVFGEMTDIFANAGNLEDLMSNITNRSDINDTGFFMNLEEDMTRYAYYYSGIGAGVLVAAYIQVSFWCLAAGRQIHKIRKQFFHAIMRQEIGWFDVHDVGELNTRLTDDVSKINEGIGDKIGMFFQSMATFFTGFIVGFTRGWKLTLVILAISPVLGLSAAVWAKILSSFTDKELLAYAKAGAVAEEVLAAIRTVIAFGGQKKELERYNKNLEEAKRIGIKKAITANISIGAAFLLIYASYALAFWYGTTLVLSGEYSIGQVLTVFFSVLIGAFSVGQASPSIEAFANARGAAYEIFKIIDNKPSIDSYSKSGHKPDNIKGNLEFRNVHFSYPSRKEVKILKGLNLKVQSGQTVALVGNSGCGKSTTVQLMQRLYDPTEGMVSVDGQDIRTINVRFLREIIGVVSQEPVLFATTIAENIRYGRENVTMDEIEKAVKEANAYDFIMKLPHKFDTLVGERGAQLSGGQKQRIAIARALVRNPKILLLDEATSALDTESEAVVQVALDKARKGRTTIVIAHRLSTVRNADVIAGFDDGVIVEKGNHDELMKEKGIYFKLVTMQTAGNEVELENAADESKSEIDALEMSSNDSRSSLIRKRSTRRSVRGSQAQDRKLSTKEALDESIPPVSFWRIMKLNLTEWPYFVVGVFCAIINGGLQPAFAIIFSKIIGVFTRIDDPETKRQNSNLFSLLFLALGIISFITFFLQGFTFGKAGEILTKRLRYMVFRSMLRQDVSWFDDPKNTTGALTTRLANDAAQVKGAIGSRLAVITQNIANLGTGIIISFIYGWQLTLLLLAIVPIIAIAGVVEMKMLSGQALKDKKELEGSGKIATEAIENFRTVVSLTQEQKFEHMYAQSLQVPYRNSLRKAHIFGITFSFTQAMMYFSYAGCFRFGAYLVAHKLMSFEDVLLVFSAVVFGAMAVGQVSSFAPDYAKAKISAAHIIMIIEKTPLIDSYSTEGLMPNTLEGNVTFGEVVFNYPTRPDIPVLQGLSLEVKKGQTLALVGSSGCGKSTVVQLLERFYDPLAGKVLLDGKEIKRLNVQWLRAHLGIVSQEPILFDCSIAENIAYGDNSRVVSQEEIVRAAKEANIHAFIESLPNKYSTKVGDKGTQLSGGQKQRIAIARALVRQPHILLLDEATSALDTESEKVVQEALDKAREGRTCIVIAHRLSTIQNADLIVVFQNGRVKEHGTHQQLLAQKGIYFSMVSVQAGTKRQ

Row | pEC50 (P-glycoprotein) | pIC50 (CYP3A4; human, microsomes, 11 min) | pIC50 (CYP3A4) | Structure (SMILES)
1 | > 7.00 | – | – | COc1cc2c(cc1OC)CN(CCc1ccc(NC(=O)c3cc(OC)c(OC)cc3NC(=O)c3cnc4ccccc4c3)cc1)CC2 [Tariquidar, reference compound]
2 | > 7.00 | < 6.00 | – | COc1cc2c(cc1OC)CN(CCc1ccc(-n3nnc(-c4cc(OCc5cccnc5)c(OC)cc4NC(=O)c4cc(=O)c5ccccc5o4)n3)cc1)CC2 [Compound 30, N-(2-(2-(4-(2-(6,7-Dimethoxy-3,4-dihydroisoquinolin-2(1H)-yl)ethyl)phenyl)-2H-tetrazol-5-yl)-5-methoxy-4-(pyridin-3-ylmethoxy)phenyl)-4-oxo-4H-chromene-2-carboxamide]
3 | 6.60 to 7.00 | – | 6.00 to 6.30 | COc1cc2c(cc1OC)CN(CCc1ccc(-n3nnc(-c4cc(OCCc5cccnc5)ccc4NC(=O)c4cc(=O)c5ccccc5o4)n3)cc1)CC2 [Compound 28, N-(2-(2-(4-(2-(6,7-Dimethoxy-3,4-dihydroisoquinolin-2(1H)-yl)ethyl)phenyl)-2H-tetrazol-5-yl)-4-(2-(pyridin-3-yl)ethoxy)phenyl)-4-oxo-4H-chromene-2-carboxamide]
4 | < 6.00 | < 6.00 | – | COc1cc(NC(=O)c2cc(=O)c3ccccc3o2)c(-c2nnn(-c3ccc(CCN4CCn5cncc5C4)cc3)n2)cc1OC [Compound 1, A-(2-(2-(4-(2-(5,6-Dihydroimidazo[1,5-a]pyrazin-7(8H)-yl)ethyl)phenyl)-2H-tetrazol-5-yl)-4,5-dimethoxyphenyl)-4-oxo-4H-chromene-2-carboxamide]
5 | < 6.00 | < 6.00 | – | COc1cc2c(cc1OC)CN(CCc1ccc(-n3nnc(-c4cc(OC)c(OC)cc4NC(=O)c4cc(=O)c5cc(-c6ccncc6)ccc5o4)n3)cc1)CC2 [Compound 19, N-(2-(2-(4-(2-(6,7-Dimethoxy-3,4-dihydroisoquinolin-2(1H)-yl)ethyl)phenyl)-2H-tetrazol-5-yl)-4,5-dimethoxyphenyl)-4-oxo-6-(pyridin-4-yl)-4H-chromene-2-carboxamide]
6 | 6.60 to 7.00 | < 6.00 | – | COc1cc(NC(=O)c2cc(=O)c3ccccc3o2)c(-c2nnn(-c3ccc(CCN4CCc5ccncc5C4)cc3)n2)cc1OC [Compound 6, N-(2-(2-(4-(2-(3,4-Dihydro-2,7-naphthyridin-2(1H)-yl)ethyl)phenyl)-2H-tetrazol-5-yl)-4,5-dimethoxyphenyl)-4-oxo-4H-chromene-2-carboxamide]
7 | < 6.00 | – | 6.60 to 7.00 | COc1cc(NC(=O)c2cc(=O)c3ccccc3o2)c(-c2nnn(-c3ccc(CCN4CCc5cc(-n6ccnc6)ccc5C4)cc3)n2)cc1OC [Compound 8, N-(2-(2-(4-(2-(6-(1H-Imidazol-1-yl)-3,4-dihydroisoquinolin-2(1H)-yl)ethyl)phenyl)-2H-tetrazol-5-yl)-4,5-dimethoxyphenyl)-4-oxo-4H-chromene-2-carboxamide]
8 | > 7.00 | – | 6.00 to 6.30 | COc1cc(NC(=O)c2cnc3ccccc3c2)c(-c2nnn(-c3ccc(CCN4CCc5cnccc5C4)cc3)n2)cc1OCc1ccccc1 [Compound 13, N-(4-(Benzyloxy)-2-(2-(4-(2-(3,4-dihydro-2,6-naphthyridin-2(1H)-yl)ethyl)phenyl)-2H-tetrazol-5-yl)-5-methoxyphenyl)quinoline-3-carboxamide]
9 | < 6.00 | – | 6.00 to 6.30 | COc1cc(NC(=O)c2cc(=O)c3ccccc3o2)c(-c2nnn(-c3ccc(CCN(Cc4cccc(-n5ccnc5)c4)Cc4ccc5c(cnn5C)c4)cc3)n2)cc1OC [Compound 3, N-(2-(2-(4-(2-((3-(1H-Imidazol-1-yl)benzyl)((1-methyl-1H-indazol-5-yl)methyl)amino)ethyl)phenyl)-2H-tetrazol-5-yl)-4,5-dimethoxyphenyl)-4-oxo-4H-chromene-2-carboxamide]
10 | > 7.00 | < 6.00 | – | COc1cc2c(cc1OC)CN(CCc1ccc(-n3nnc(-c4cc(OC)c(OC)cc4NC(=O)c4cc(=O)c5ccccc5o4)n3)cc1)CC2 [Encequidar methanesulfonate monohydrate, reference compound]
11 | 6.60 to 7.00 | – | 6.00 to 6.30 | COc1cc(NC(=O)c2cc(=O)c3ccccc3o2)c(-c2nnn(-c3ccc(CCN4CCc5cnccc5C4)cc3)n2)cc1OC [Compound 7, N-(2-(2-(4-(2-(3,4-Dihydro-2,6-naphthyridin-2(1H)-yl)ethyl)phenyl)-2H-tetrazol-5-yl)-4,5-dimethoxyphenyl)-4-oxo-4H-chromene-2-carboxamide]
12 | > 7.00 | < 6.00 | – | COc1cc2c(cc1OC)CN(CCc1ccc(-n3nnc(-c4cc(OC)c(OC)cc4NC(=O)c4ccc(-c5ccncc5)cc4)n3)cc1)CC2 [Compound 21, N-(2-(2-(4-(2-(6,7-Dimethoxy-3,4-dihydroisoquinolin-2(1H)-yl)ethyl)phenyl)-2H-tetrazol-5-yl)-4,5-dimethoxyphenyl)-4-(pyridin-4-yl)benzamide]
13 | > 7.00 | < 6.00 | – | COc1cc(NC(=O)c2cc(=O)c3ccccc3o2)c(-c2nnn(-c3ccc(CCN4CCc5cnccc5C4)cc3)n2)cc1OCc1ccccc1 [Compound 12, N-(4-(Benzyloxy)-2-(2-(4-(2-(3,4-dihydro-2,6-naphthyridin-2(1H)-yl)ethyl)phenyl)-2H-tetrazol-5-yl)-5-methoxyphenyl)-4-oxo-4H-chromene-2-carboxamide]
14 | – | 6.00 to 6.30 | – | COc1cc(NC(=O)c2cnc3ccccc3c2)c(-c2nnn(-c3ccc(CCN4CCc5cnccc5C4)cc3)n2)cc1OCc1ccccc1 [Compound 17, N-(4-(Benzyloxy)-2-(2-(4-(2-(3,4-dihydro-2,6-naphthyridin-2(1H)-yl)ethyl)phenyl)-2H-tetrazol-5-yl)-5-methoxyphenyl)quinoline-3-carboxamide]
15 | > 7.00 | < 6.00 | – | COc1cc(NC(=O)c2cc(=O)c3ccccc3o2)c(-c2nnn(-c3ccc(CCN4CCn5cncc5C4)cc3)n2)cc1OCc1ccccc1 [Compound 18, N-(4-(Benzyloxy)-2-(2-(4-(2-(5,6-dihydroimidazo[1,5-a]pyrazin-7(8H)-yl)ethyl)phenyl)-2H-tetrazol-5-yl)-5-methoxyphenyl)-4-oxo-4H-chromene-2-carboxamide]
16 | 6.60 to 7.00 | < 6.00 | – | COc1cc2c(cc1OC)CN(CCc1ccc(-n3nnc(-c4cc(OC)c(OC)cc4NC(=O)c4ccc(-c5cccnc5)cc4)n3)cc1)CC2 [Compound 22, N-(2-(2-(4-(2-(6,7-Dimethoxy-3,4-dihydroisoquinolin-2(1H)-yl)ethyl)phenyl)-2H-tetrazol-5-yl)-4,5-dimethoxyphenyl)-4-(pyridin-3-yl)benzamide]
17 | < 6.00 | – | 6.00 to 6.30 | COc1cc(NC(=O)c2cnc3ccccc3n2)c(-c2nnn(-c3ccc(CCN4CCc5cnccc5C4)cc3)n2)cc1OC [Compound 9, N-(2-(2-(4-(2-(3,4-Dihydro-2,6-naphthyridin-2(1H)-yl)ethyl)phenyl)-2H-tetrazol-5-yl)-4,5-dimethoxyphenyl)quinoxaline-2-carboxamide]
18 | < 6.00 | – | – | COc1cc(NC(=O)c2cc(=O)c3ccccc3o2)c(-c2nnn(-c3ccc(CCN4CCc5cc(OC)c(OCCn6ccnc6)cc5C4)cc3)n2)cc1OC [Compound 14, N-(2-(2-(4-(2-(7-(2-(1H-Imidazol-1-yl)ethoxy)-6-methoxy-3,4-dihydroisoquinolin-2(1H)-yl)ethyl)phenyl)-2H-tetrazol-5-yl)-4,5-dimethoxyphenyl)-4-oxo-4H-chromene-2-carboxamide]
